Reference: patent US6399614B1, “1-(N-phenylaminoalkyl)piperazine derivatives substituted at position 2 of the phenyl ring” (Recordati S.A. Chemical and Pharmaceutical Company, priority 1997, dated 2002)

Target: T1, human 5-HT1A serotonergic receptor (Homo sapiens, UniProt P08908)
T1 construct: expressed in transfected cells; host or cells: HeLa
T1 sequence (P08908 1-422): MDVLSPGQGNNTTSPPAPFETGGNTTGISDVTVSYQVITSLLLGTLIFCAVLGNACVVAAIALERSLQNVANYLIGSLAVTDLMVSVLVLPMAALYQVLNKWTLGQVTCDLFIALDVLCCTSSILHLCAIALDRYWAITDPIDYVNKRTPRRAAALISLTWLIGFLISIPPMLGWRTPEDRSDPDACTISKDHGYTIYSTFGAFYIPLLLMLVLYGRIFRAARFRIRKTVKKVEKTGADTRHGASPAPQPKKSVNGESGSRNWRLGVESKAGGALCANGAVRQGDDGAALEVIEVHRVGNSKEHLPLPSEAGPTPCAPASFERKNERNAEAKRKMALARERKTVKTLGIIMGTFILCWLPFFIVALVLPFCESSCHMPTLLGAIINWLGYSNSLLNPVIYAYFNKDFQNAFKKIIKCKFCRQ
Test: Radioreceptor binding, recombinant human 5-HT1A receptors ([3H]8-OH-DPAT, HeLa membranes)
Conditions: recombinant human receptor, [3H]8-OH-DPAT; Ki from IC50 by Cheng & Prusoff; read-out: Binding affinity for the 5-HT1A receptor, Ki
Method: Genomic clone G-21 coding for the human 5-HT1A serotonergic receptor is stably transfected in a human cell line (HeLa). HeLa cells were grown as monolayers in Dulbecco's modified Eagle's medium (DMEM), supplemented with 10% fetal calf serum and gentamicin ([…]), 5% CO2 at 37° C. Cells were detached from the growth flask at 95% confluence by a cell scraper and were lysed in ice-cold 5 mM Tris and 5 mM EDTA buffer (pH 7.4). Homogenates were centrifuged at 40000×g×20 min and pellets were resuspended in a small volume of ice-cold 5 mM Tris and 5 mM EDTA buffer (pH 7.4) and immediately frozen and stored at −70° C. until use. On the day of experiment, cell membranes were resuspended in binding buffer: 50 mM Tris HCl (pH 7.4), 2.5 mM MgCl2, 10 μM pargiline (Fargin et al., Nature 335, 358-360, 1988). Membranes were incubated in a final volume of 1 ml for 30 min at 30° C. with 0.2-1 nM [3H]8-OH-DPAT, in absence or presence of competing drugs; non-specific binding was determined in the presence of 10 μM 5-HT. The incubation was stopped by addition of ice-cold Tris-HCl buffer and rapid filtration through 0.2% polyethyleneimine pretreated Whatman GF/B or Schleicher & Schuell GF52 filters.
The inhibition of specific binding of the radioligands by the tested drugs was analyzed to estimate the IC50 value by using the non-linear curve-fitting program Allfit (De Lean et al., Am. J. Physiol. 235, E97-E102, 1978). The IC50 value was converted to an affinity constant (Ki) by the equation of Cheng & Prusoff (Cheng, Y. C.; Prusoff, W. H. Biochem. Pharmacol. 22, 3099-3108, 1973).

Compound	Ki
COc1ccccc1N1CCN(CCNc2ccccc2OC(F)(F)F)CC1 [Example 3, 1-[N-(2-trifluoromethoxyphenyl)-2-aminoethyl]-4-(2-methoxyphenyl)piperazine]	10.3 nM
COc1ccccc1N1CCN(CCN(C(=O)C2CCCCC2)c2ccccc2OC(F)(F)F)CC1 [Example 4, 1-[N-(2-trifluoromethoxyphenyl)-N-cyclohexylcarbonyl-2-aminoethyl]-4-(2-methoxyphenyl)piperazine]	0.64 nM
COc1ccccc1N1CCN(CCNc2ccccc2Oc2ccccc2)CC1 [Example 5, 1-[N-(2-phenoxyphenyl)-2-aminoethyl]-4-(2-methoxyphenyl)piperazine.3HCl]	14.8 nM
COc1ccccc1N1CCN(CCN(C(=O)C2CCCCC2)c2ccccc2Oc2ccccc2)CC1 [Example 6, 1-[N-(2-phenoxyphenyl)-N-cyclohexylcarbonyl-2-aminoethyl]-4-(2-methoxyphenyl)piperazine]	0.45 nM
COc1ccccc1N1CCN(CCNc2ccccc2I)CC1 [Example 7, 1-[N-(2-iodophenyl)-2-aminoethyl]-4-(2-methoxyphenyl)piperazine]	3.82 nM
O=[N+]([O-])c1ccccc1NCCN1CCN(c2cccc3[nH]ccc23)CC1 [Example 12, 1-[N-(2-nitrophenyl)-2-aminoethyl]-4-(4-indolyl)piperazine]	4.77 nM
O=[N+]([O-])c1ccccc1NCCN1CCN(Cc2cc(Cl)ccc2Cl)CC1 [Example 14, 1-[N-(2-nitrophenyl)-2-aminoethyl)-4-(2,5-dichlorobenzyl)piperazine]	10.3 nM
O=C(C1CCCCC1)N(CCN1CCN(Cc2cc(Cl)ccc2Cl)CC1)c1ccccc1[N+](=O)[O-] [Example 15, 1-[N-(2-nitrophenyl)-N-cyclohexylcarbonyl-2-aminoethyl]-4-(2,5-dichlorobenzyl)piperazine]	6.2 nM
COc1ccccc1N1CCN(CCN(C(=O)C2CCCCC2)c2ccccc2C(=O)NC(=O)C2CCCCC2)CC1 [Example 16, 1-[N-(2-cyclohexylcarbonylaminocarbonylphenyl)-N-cyclohexylcarbonyl-2-aminoethyl]-4-(2-methoxyphenyl)piperazine]	2.9 nM
COC(=O)c1ccccc1NCCN1CCN(c2ccccc2OC)CC1 [Example 17, 1-[N-(2-methoxycarbonylphenyl)-2-aminoethyl]-4-(2-methoxyphenyl)piperazine]	20.2 nM
COc1ccccc1N1CCN(CCN(C(=O)C2CCCCC2)c2ccccc2C(=O)N(C)C)CC1 [Example 21, 1-[N-(2-dimethylaminocarbonylphenyl)-N-cyclohexylcarbonyl-2-aminoethyl]-4-(2-methoxyphenyl)piperazine.]	2.72 nM
COc1ccccc1N1CCN(CCNc2ccccc2C(F)(F)F)CC1 [Example 22, 1-[N-(2-trifluoromethylphenyl)-2-aminoethyl]-4-(2-methoxyphenyl)piperazine]	18.2 nM
CCNC(=O)c1ccccc1N(CCN1CCN(c2ccccc2OC)CC1)C(=O)C1CCCCC1 [Example 25, 1-[N-(2-ethylaminocarbonylphenyl)-N-cyclohexylcarbonyl-2-aminoethyl]-4-(2-methoxyphenyl)piperazine]	8.91 nM
COc1ccccc1N1CCN(CCN(C(=O)C2CCCCC2)c2ccccc2C(F)(F)F)CC1 [Example 26, 1-[N-(2-trifluoromethylphenyl)-N-cyclohexylcarbonyl-2-aminoethyl]-4-(2-methoxyphenyl)piperazine.]	2.69 nM
COc1ccccc1N1CCN(CCN(C(=O)C2CCCCC2)c2ccccc2NC(C)=O)CC1 [Example 28, 1-[N-(2-acetylaminophenyl)-N-cyclohexylcarbonyl-2-aminoethyl]-4-(2-methoxyphenyl)piperazine]	18.8 nM
COc1ccccc1[N+]1([O-])CCN(CCN(C(=O)C2CCCCC2)c2ccccc2[N+](=O)[O-])CC1 [Example 30, 1-[N-(2-nitrophenyl)-N-cyclohexylcarbonyl-2-aminoethyl]-4-(2-methoxyphenyl)piperazine N^4-oxide]	7.96 nM
COc1ccccc1N1CCN(CCN(C(=O)c2ccoc2)c2ccccc2[N+](=O)[O-])CC1 [Example 32, 1-[N-(2-nitrophenyl)-N-(3-furylcarbonyl)-2-aminoethyl]-4-(2-methoxyphenyl)piperazine]	19.4 nM

Compound	Ki
COc1ccccc1N1CCN(CCN(C(=O)c2cccs2)c2ccccc2[N+](=O)[O-])CC1 [Example 34, 1-[N-(2-nitrophenyl)-N-(2-thiophenecarbonyl)-2-aminoethyl]-4-(2-methoxyphenyl)piperazine]	16.3 nM
COc1ccccc1N1CCN(CCN(C(=O)c2ccsc2)c2ccccc2[N+](=O)[O-])CC1 [Example 35, 1-[N-(2-nitrophenyl)-N-(3-thiophenecarbonyl)-2-aminoethyl]-4-(2-methoxyphenyl)piperazine]	8 nM
COc1ccccc1N1CCN(CCN(C(=O)c2cnccn2)c2ccccc2[N+](=O)[O-])CC1 [Example 38, 1-[N-(2-nitrophenyl)-N-(2-pyrazinylcarbonyl)-2-aminoethyl]-4-(2-methoxyphenyl)piperazine]	1.02 nM
COc1ccccc1N1CCN(CCN(C(=O)C2(C)CCCCC2)c2ccccc2[N+](=O)[O-])CC1 [Example 39, 1-[N-(2-nitrophenyl)-N-(1-methylcyclohexylcarbonyl)-2-aminoethyl]-4-(2-methoxyphenyl)piperazine]	2.65 nM
COc1ccccc1N1CCN(C(C)CN(C(=O)C2CCCCC2)c2ccccc2[N+](=O)[O-])CC1 (stereo not shown) [Example 45, 1-[N-(2-nitrophenyl)-N-cyclohexylcarbonyl-1-amino-2-propyl]-4-(2methoxyphenyl)piperazine]	2.21 nM
COc1ccccc1N1CCN(CCN(C(=O)C2CCCCC2)c2ccccc2NS(C)(=O)=O)CC1 [Example 46, 1-[N-cyclohexylcarbonyl-N-(2-methanesulphonylaminophenyl)-2-aminoethyl]-4-(2-methoxyphenyl)piperazine]	6.05 nM
COc1ccccc1N1CCN(CCN(C(=O)C2CCCCC2)c2ccccc2C(=O)OCc2ccccc2)CC1 [Example 49, 1-[N-cyclohexylcarbonyl-N-(2-benzyloxycarbonylphenyl)-2-aminoethyl]-4-(2-methoxyphenyl)piperazine]	0.17 nM
FC(F)(F)Oc1ccccc1NCCN1CCN(c2cccc3[nH]ccc23)CC1 [Example 50, 1-[N-(2-trifluoromethoxyphenyl)-2-aminoethyl]-4-(4-indolyl)piperazine]	1.16 nM
COc1ccccc1N1CCN(CC(C)Nc2ccccc2[N+](=O)[O-])CC1 (stereo not shown) [Example 52, 1-[N-(2-nitrophenyl)-2-aminopropyl]-4-(2-methoxyphenyl)piperazine]	34 nM
O=C(c1cnccn1)N(CCN1CCN(c2cccc3[nH]ccc23)CC1)c1ccccc1[N+](=O)[O-] [Example 53]	11.7 nM
COc1cc([N+](=O)[O-])ccc1N1CCN(CCN(C(=O)C2CCCCC2)c2ccccc2OC(F)(F)F)CC1 [Example 55, 1-[N-cyclohexylcarbonyl-N-(2-trifluoromethoxyphenyl)-2-aminoethyl]-^4-(2-methoxy-4-nitrophenyl)piperazine]	10.8 nM
COc1cc(NC(=O)C(F)(F)F)ccc1N1CCN(CCN(C(=O)C2CCCCC2)c2ccccc2OC(F)(F)F)CC1 [Example 58, 1-[N-cyclohexylcarbonyl-N-(2-trifluoromethoxyphenyl)-2-aminoethyl]-4-(4-trifluoroacetylamino-2-methoxyphenyl)piperazine]	2.44 nM
COc1cc([N+](=O)[O-])ccc1N1CCN(CCN(C(=O)C2CCCCC2)c2ccccc2OCC(F)(F)F)CC1 [Example 65]	18.6 nM
COc1cc(NC(C)=O)ccc1N1CCN(CCN(C(=O)C2CCCCC2)c2ccccc2OCC(F)(F)F)CC1 [Example 67]	4.76 nM
FC(F)(F)COc1ccccc1NCCN1CCN(c2cccc3[nH]ccc23)CC1 [Example 68]	9.32 nM
COc1cc(NC(C)=O)ccc1N1CCN(CCN(C(=O)C2CCCCC2)c2ccccc2[N+](=O)[O-])CC1 [Example 70]	28.1 nM
FC(F)(F)Oc1ccccc1NCCN1CCN(c2ccccc2OC(F)(F)F)CC1 [Example 71, 1-[N-(2-trifluoromethoxyphenyl)-2-aminoethyl]-4-(2-trifluoromethoxyphenyl)piperazine]	15.5 nM
